Data from US20250067727A1, “BIOENGINEERED NEURONAL ORGANOIDS (BENOS) AND USES THEREOF” (Georg-August-Universität Göttingen Stiftung Öffentlichen …, priority 2017, published 2025).

Legend:
[1] = test system: bioengineered neuronal organoids (BENOs) from human pluripotent stem cells; experiment: qPCR transcript analysis of neuronal and glia markers in BENOs; assay type: cell-based; design: PAX6 transcripts: dose or concentration left out as unconfirmed
Procedure: (§1) In initial attempts, single SMAD pathway inhibition (using noggin) was employed to elicit neural induction, along with the addition of retinoic acid (RA). In the present study, it was tested whether dual SMAD signaling pathway inhibition using noggin and SB431542 during the neural induction phase (days 0-8) might further enhance neurogenesis, e.g., at day 28. Accordingly, NCM containing only noggin, or NCM containing noggin and SB431542, were each investigated.
Numerous conventional protocols in the literature employ neurotrophic factors BDNF and GDNF to improve neuronal survival at the differentiation and maturation stages. Therefore, it was tested whether the addition of BDNF (20 ng/ml) and GDNF (10 ng/ml) to NPEM during culture days 10-28 would result in a higher number of maturing neurons by day 28 (FIG. 4). […]
In all protocols, the differentiation was carried out in Neurobasal™ medium supplemented with B27 and N2. hiPS cells were subjected to neuroectoderm induction (days 0-8) under dual SMAD inhibition (noggin & SB431542) and additional retinoic acid (RA) supplementation to mimic signaling that occurs during embryonic neurogenesis. In protocol 2, the proliferative effects of FGF-2 (day 8-15) in neural progenitor cells (NPCs) were tested. In protocol 3, the effect of Notch inhibitor DAPT in neuronal commitment of NPCs (day 15-28) was tested. In protocol 4, the proliferative effects of TGF-beta 1 for glia cells (day 8-28) were tested. In protocol 5, TGF-beta 1 and DAPT treatments were combined in order to test whether development of glia and neurons can be enhanced simultaneously.
In order to assess the neurogenic and gliogenic potential afforded by the different protocols, tissues were collected at days −1, 0, 3, 8, 15, 28 and 40 (3-6 tissues/time point). Since the treatment until day 8 was identical for all protocols, tissues until that time point were only collected from protocol 1. […] Since treatment with DAPT (protocols 3 and 5) was evidently supporting neurogenesis and TGF-beta 1 appeared to support gliogenesis, the time course analysis was extended for protocol 3 (DAPT) and protocol 5 (DAPT and TGF-beta 1).

[2] = test system: bioengineered neuronal organoids (BENOs) from human pluripotent stem cells; experiment: whole mount immunofluorescence (neurofilament) analysis of BENOs; assay type: cell-based
Procedure: as §1
Consequently, it appears advantageous to increase the amount of neural progenitor cells (NPCs) inside the tissue by treating the organoids with FGF-2 (days 8-15). This corresponds to the use of NPEM in the above protocol. To test whether the use of FGF-2 is favorable, tissues (3000 cell/μl) were treated with 10 ng/ml FGF-2 at two different time-points; day −2 to day 0 (before neural induction at the stem cell stage), and day 8 to day 15 at the NPC stage (FIG. 3B).

[3] = test system: GABAergic network of BENOs (GABAR); experiment: calcium imaging of BENO neuronal network under GABAergic inhibition; assay type: cell-based, human; settings: for synchrony of the same neurons upon inhibitor washout: after picrotoxin 58 μM and saclofen 330 μM; for synchrony of previously spontaneously synchronized neurons under GABAR inhibition: picrotoxin 58 μM and saclofen 330 μM applied together, BENOs days 30-60, n=3, 4 pairs of cells
Procedure: To test neuronal network activity, BENOs (days 30-60) were subjected to calcium imaging under GABAergic inhibition (carried out using picrotoxin, 58 μM; saclofen, 330 μM; n=3). GABAR inhibition led to an asynchrony of previously spontaneously synchronized neurons (4 pairs of cells).

[4] = protocols 3 and 5, DAPT day 15-28, time course
[5] = SB431542 added to noggin during neural induction (days 0-8) vs noggin only, n=4 tissues/group
[6] = BDNF (20 ng/ml) and GDNF (10 ng/ml) added together, culture days 10-28, analysed day 28

C[C@H](NC(=O)Cc1cc(F)cc(F)c1)C(=O)NC(C(=O)OC(C)(C)C)c1ccccc1 (stereo partly shown) [DAPT]
PAX6 transcripts ([1]; DAPT added to NDM, day 15-28): increase
amount of the neuronal marker GABBR2 [1, 4]: significantly increased
amount of the neuronal marker GRIN1 [1, 4]: significantly increased
amount of the neuronal marker MAP2 [1, 4]: significantly increased
amount of the neuronal marker PAX 6 [1, 4]: significantly increased

NC(=O)c1ccc(-c2nc(-c3ccc4c(c3)OCO4)c(-c3ccccn3)[nH]2)cc1 [SB431542]
increase of neuronal marker MAP2 (qPCR) [1, 5]: 21 fold
increase of neuronal marker PAX6 (qPCR) [1, 5]: 21 fold
amount of maturing neurons (immunofluorescence and PAX6/MAP2 transcripts) ([2]; dual SMAD inhibition, noggin and SB431542, days 0-8, vs noggin only, day 28): clearly observed to be advantageous

NCC(CS(=O)(=O)O)c1ccc(Cl)cc1 (stereo not shown) [saclofen]
synchrony of the same neurons upon inhibitor washout [3]: re-synchronized
synchrony of previously spontaneously synchronized neurons under GABAR inhibition [3]: asynchrony

FGF-2: member of the fibroblast growth factor family, encoded by the FGF2 gene
level of different markers (OCT4, GFAP, PAX6, MAP2, GRIN1, GABBR2) at any time point ([1]; protocol 2, FGF-2 day 8-15, time course days -1 to 40): did not significantly influence
neurofilament staining, double treatment vs single treatment ([2]; 10 ng/ml FGF-2, day -2-0 and days 8-15 vs days 8-15 only): did not seem to be advantageous
neurofilament staining, advantage compared to untreated tissues ([2]; 10 ng/ml FGF-2, day -2 to day 0 (stem cell stage), read at day 28): did not appear to provide any advantage
neuronal network complexity at day 28 (IF whole mount staining of neurofilament) ([2]; 10 ng/ml FGF-2, days 8-15): more complex neuronal networks
proliferation of the cells including NPCs ([2]; 10 ng/ml FGF-2, days 8-15 (NPC stage)): markedly induced proliferation

TGF-beta 1: transforming growth factor beta 1 (Peprotech)
amount of the glia marker GFAP ([1]; protocols 4 and 5, TGF-beta 1 day 8-28, by day 40, vs the other 3 protocols): higher amounts

picrotoxin
synchrony of the same neurons upon inhibitor washout [3]: re-synchronized
synchrony of previously spontaneously synchronized neurons under GABAR inhibition [3]: asynchrony

B1: GDNF: neurotrophic factor used to improve neuronal survival (protein, UniProt P39905 78-211, looked up)
Glial cell line-derived …: SPDKQMAVLPRRERNRQAAAANPENSRGKGRRGQRGKNRGCVLTAIHLNVTDLGLGYETKEELIFRYCSGSCDAAETTYDKILKNLSRNRRLVSDKVGQACCRPIAFDDDLSFLDDNLVYHILRKHSAKRCGCI
amount of the maturation marker MAP2 [1, 6]: do not increase
amount of the neuronal marker PAX 6 [1, 6]: do not increase

B2: BDNF: neurotrophic factor used to improve neuronal survival (protein, UniProt P23560 129-247, looked up)
Neurotrophic factor BDNF: HSDPARRGELSVCDSISEWVTAADKKTAVDMSGGTVTVLEKVPVSKGQLKQYFYETKCNPMGYTKEGCRGIDKRHWNSQCRTTQSYVRALTMDSKKRIGWRFIRIDTSCVCTLTIKRGR
modifications: Neurotrophic factor BDNF
amount of the maturation marker MAP2 [1, 6]: do not increase
amount of the neuronal marker PAX 6 [1, 6]: do not increase
